Data as given in US20260365670A1, “EGFR INHIBITORS AND USES THEREOF” (DIZAL (JIANGSU) PHARMACEUTICAL CO., LTD., priority 2022, published 2026).
Where two headings read alike, the source gives them in different places.

Legend:
[1] = target: T1, EGFR[T790M/C797S/d746-750] (Homo sapiens, UniProt P00533, C797S/DEL746-750/T790M); assay: Inhibition of EGFR[T790M/C797S/d746-750] biochemical enzymatic activity (HTRF); details: EGFR T790M-C797S-Del19, 1 mM ATP, 1 h, room temperature, read-out: IC50 (nM) @T790M - C797S - Del19
T1 construct: purchased Carna Bio
In short: (§1)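 Phosphorylation of TK Substrate-biotin (1 μM) was measured at 1 mM ATP over a 1 h room-temperature incubation with serially varied compound. Detection was by HTRF ratio and analysis by 4PL fit to IC50.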

[2] = target: T2, EGFR[T790M/C797S/L858R] (Homo sapiens, UniProt P00533, C797S/L858R/T790M); assay: Inhibition of EGFR[T790M/C797S/L858R] biochemical enzymatic activity (HTRF); details: EGFR T790M-C797S-L858R, 1 mM ATP, 1 h, room temperature, read-out: IC50 (nM) @T790M- C797S - L858R
T2 construct: purchased Carna Bio
In short: as §1

[3] = target: T3, EGFR wild type (Homo sapiens, UniProt P00533); assay: Inhibition of EGFR wild type biochemical enzymatic activity (HTRF); details: EGFR WT, 1 mM ATP, 1 h, room temperature, read-out: IC50 (nM) @WT
T3 construct: purchased Carna Bio
In short: as §1

[4] = test system: A-431; assay: Cell proliferation GI50, A-431 cells (Table 6); assay type: cell-based
[5] = target: T4, EGFR (C797S L858R) (Homo sapiens, UniProt P00533, C797S/L858R); assay: Inhibition of EGFR (C797S L858R) biochemical enzymatic activity (HTRF); details: EGFR L858-C797S, 1 mM ATP, 1 h, room temperature, read-out: IC50 (nM) @L858-C797S
T4 construct: purchased signalchem
In short: as §1

[6] = target: T5, EGFR L858R/T790M (Homo sapiens, UniProt P00533, L858R/T790M); assay: Inhibition of EGFR L858R/T790M biochemical enzymatic activity (HTRF); details: EGFR L858R-T790M, 1 mM ATP, 1 h, room temperature, read-out: IC50 (nM) @L858R-T790M
T5 construct: purchased Carna Bio
In short: as §1

[7] = target: T6, EGFR Exon19Del/T790M (Homo sapiens, UniProt P00533, DEL746-750/T790M); assay: Inhibition of EGFR Exon19Del/T790M biochemical enzymatic activity (HTRF); details: EGFR Del19-T790M, 1 mM ATP, 1 h, room temperature, read-out: IC50 (nM) @Del19-T790M
T6 construct: purchased Carna Bio
In short: as §1

[8] = target: T7, EGFR (d746-750 C797S) (Homo sapiens, UniProt P00533, C797S/DEL746-750); assay: Inhibition of EGFR (d746-750 C797S) biochemical enzymatic activity (HTRF); details: EGFR Del19-C797S, 1 mM ATP, 1 h, room temperature, read-out: IC50 (nM) @Del19-C797S
T7 construct: purchased signalchem
In short: as §1

[9] = test system: PC-9; assay: Cell proliferation assay, PC-9 cells (CellTiter-Glo, 72 hours); assay type: cell-based; details: PC9 cells, CellTiter-Glo, read-out: PC9 GI50
In short: (§2)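 Luminescent viable-cell counts were taken on a day 0 plate at dosing and again at endpoint. Proliferation was calculated as (sample − G0)/(DMSO − G0). Seeding was 5000 Ba/F3 or 500 PC-9 cells per well in RPMI1640, followed by overnight attachment and serial compound dilutions. The GI50 was fitted.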

[10] = test system: Ba/F3 cells expressing EGFR mutations; assay: Cell proliferation assay, Ba/F3 cells expressing EGFR mutations (CellTiter-Glo, 72 hours); assay type: cell-based; details: CellTiter-Glo
In short: as §2

[11] = target: T8, EGFR Exon19Del (Homo sapiens, UniProt P00533, DEL746-750); assay: Inhibition of EGFR Exon19Del biochemical enzymatic activity (HTRF); details: EGFR Del19, 1 mM ATP, 1 h, room temperature, read-out: IC50 @Del19
T8 construct: purchased Carna Bio
In short: as §1

[12] = target: T9, EGFR L858R (Homo sapiens, UniProt P00533, L858R); assay: Inhibition of EGFR L858R biochemical enzymatic activity (HTRF); details: 1 mM ATP, 1 h, room temperature, read-out: IC50 (nM) @L858R
T9 construct: purchased Carna Bio
In short: as §1

[13] = Homo sapiens, A-431, A-431 cells
[14] = Mus musculus, BaF3, 72 h, BaF3 cells, EGFR DEL19-C797S, read-out: DEL19-C797S/BaF3 GI50
[15] = Mus musculus, BaF3, 72 h, BaF3 cells, EGFR DEL19-T790-C797S, read-out: DEL19-T790-C797S/BaF3 GI50
[16] = Mus musculus, BaF3, 72 h, BaF3 cells, EGFR L858R, read-out: L858R/BaF3 GI50
[17] = Mus musculus, BaF3, 72 h, BaF3 cells, EGFR L858R-C797S, read-out: L858R-C797S/BaF3 GI50
[18] = Mus musculus, BaF3, 72 h, BaF3 cells, EGFR L858R-T790-C797S, read-out: L858R-T790-C797S/BaF3 GI50
[19] = Mus musculus, BaF3, 72 h, BaF3 cells, EGFR L858R-T790M, read-out: L858R-T790M/BaF3 GI50
[20] = Mus musculus, BaF3, 72 h, EGFR DEL19-T790M, read-out: DEL19-T790M GI50
[21] = BaF3 cells, EGFR DEL19-C797S, read-out: DEL19-C797S/BaF3 GI50
[22] = BaF3 cells, EGFR DEL19-T790-C797S, read-out: DEL19-T790-C797S/BaF3 GI50
[23] = BaF3 cells, EGFR L858R-C797S, read-out: L858R-C797S/BaF3 GI50
[24] = BaF3 cells, EGFR L858R-T790-C797S, read-out: L858R-T790-C797S/BaF3 GI50
[25] = EGFR DEL19-T790M, read-out: DEL19-T790M GI50

T4 sequence (P00533 25-1210 C797S/L858R): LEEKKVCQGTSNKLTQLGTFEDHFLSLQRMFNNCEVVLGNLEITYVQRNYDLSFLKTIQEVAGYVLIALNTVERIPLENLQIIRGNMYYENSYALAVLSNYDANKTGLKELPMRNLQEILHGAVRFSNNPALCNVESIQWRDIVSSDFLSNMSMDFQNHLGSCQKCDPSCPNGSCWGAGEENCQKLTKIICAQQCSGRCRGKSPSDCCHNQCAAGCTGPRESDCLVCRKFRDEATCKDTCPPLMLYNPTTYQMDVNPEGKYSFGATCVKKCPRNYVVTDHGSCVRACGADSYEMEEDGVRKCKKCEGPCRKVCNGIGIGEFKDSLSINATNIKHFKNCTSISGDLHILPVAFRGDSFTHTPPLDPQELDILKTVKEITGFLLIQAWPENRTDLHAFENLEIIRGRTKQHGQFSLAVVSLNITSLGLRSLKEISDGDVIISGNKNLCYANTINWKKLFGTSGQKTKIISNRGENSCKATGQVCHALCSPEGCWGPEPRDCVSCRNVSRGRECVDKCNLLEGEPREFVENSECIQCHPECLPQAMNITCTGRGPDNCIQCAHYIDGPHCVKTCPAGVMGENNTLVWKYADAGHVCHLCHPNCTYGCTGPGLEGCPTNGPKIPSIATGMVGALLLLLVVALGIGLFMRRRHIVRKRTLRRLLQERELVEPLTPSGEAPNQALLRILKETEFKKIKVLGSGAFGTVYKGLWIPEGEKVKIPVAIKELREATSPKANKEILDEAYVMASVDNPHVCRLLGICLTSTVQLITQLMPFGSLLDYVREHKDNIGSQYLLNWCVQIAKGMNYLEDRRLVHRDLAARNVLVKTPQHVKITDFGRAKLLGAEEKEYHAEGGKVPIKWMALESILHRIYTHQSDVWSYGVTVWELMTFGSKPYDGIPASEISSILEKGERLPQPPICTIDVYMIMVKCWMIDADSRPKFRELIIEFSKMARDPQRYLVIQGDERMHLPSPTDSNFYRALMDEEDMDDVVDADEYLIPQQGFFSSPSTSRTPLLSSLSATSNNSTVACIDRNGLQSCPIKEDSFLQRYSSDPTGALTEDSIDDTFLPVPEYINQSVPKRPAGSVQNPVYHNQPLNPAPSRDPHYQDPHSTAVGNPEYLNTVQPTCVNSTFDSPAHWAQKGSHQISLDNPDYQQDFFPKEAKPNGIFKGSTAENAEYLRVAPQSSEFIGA
T7 sequence (P00533 with tags, fused parts or gaps DEL746-750/C797S limits assumed): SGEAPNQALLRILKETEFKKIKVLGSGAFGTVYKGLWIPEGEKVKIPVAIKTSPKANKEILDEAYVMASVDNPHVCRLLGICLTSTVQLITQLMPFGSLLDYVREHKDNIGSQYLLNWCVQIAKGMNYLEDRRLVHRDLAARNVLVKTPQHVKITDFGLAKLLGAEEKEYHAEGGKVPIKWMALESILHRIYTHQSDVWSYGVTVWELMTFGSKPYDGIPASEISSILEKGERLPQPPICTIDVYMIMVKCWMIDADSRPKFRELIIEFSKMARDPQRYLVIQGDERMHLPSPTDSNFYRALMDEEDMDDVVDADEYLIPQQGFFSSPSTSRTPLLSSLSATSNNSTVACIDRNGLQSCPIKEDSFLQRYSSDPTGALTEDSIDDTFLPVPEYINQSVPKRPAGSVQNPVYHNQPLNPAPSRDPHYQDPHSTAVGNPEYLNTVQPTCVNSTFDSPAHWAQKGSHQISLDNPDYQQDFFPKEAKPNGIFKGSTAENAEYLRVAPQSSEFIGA
T9 sequence (P00533 25-1210 L858R): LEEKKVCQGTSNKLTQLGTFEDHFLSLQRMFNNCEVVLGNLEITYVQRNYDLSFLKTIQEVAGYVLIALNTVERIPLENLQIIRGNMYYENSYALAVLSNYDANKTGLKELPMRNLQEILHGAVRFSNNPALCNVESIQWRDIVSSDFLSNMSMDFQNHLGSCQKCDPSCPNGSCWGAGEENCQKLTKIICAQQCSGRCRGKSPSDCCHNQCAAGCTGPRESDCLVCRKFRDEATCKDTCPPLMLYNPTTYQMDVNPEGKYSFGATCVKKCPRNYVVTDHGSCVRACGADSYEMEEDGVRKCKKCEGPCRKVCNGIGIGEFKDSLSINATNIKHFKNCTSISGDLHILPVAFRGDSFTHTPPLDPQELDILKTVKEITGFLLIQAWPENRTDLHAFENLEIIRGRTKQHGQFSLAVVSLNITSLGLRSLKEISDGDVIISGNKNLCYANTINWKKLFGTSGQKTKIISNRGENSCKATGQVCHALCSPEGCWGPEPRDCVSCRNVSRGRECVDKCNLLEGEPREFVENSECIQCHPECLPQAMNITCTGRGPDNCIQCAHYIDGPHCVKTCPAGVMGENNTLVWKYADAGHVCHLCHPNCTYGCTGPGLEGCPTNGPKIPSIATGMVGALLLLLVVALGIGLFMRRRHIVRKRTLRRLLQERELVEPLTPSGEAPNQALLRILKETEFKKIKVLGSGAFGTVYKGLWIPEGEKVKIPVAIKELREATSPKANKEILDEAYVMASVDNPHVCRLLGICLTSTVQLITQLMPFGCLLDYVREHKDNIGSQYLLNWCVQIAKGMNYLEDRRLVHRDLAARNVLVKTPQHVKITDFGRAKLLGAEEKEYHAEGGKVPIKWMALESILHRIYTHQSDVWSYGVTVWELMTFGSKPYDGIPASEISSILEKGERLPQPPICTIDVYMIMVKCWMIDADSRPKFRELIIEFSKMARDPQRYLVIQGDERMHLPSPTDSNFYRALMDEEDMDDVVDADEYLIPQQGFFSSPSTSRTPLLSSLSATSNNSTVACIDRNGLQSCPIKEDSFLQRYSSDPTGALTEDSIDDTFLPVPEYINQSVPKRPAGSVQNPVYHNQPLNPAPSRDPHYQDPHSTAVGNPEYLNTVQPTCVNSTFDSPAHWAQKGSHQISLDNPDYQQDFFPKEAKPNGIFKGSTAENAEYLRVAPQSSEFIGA
T1 sequence (P00533 with tags, fused parts or gaps DEL746-750/T790M/C797S limits assumed): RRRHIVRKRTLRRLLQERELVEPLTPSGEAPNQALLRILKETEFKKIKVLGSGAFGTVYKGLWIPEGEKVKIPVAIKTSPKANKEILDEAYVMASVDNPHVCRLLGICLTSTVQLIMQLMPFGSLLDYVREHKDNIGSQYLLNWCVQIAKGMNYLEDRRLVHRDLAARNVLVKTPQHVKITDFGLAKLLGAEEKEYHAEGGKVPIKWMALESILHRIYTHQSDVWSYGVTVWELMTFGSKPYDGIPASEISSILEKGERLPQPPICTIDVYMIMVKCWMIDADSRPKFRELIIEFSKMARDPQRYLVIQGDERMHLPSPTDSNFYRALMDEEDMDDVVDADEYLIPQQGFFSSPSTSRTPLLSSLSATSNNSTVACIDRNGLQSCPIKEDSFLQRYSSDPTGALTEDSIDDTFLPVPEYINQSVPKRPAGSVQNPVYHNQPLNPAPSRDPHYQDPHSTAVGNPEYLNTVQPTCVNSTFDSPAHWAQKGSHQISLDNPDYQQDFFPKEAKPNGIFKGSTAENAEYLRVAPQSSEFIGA
T8 sequence (P00533 with tags, fused parts or gaps DEL746-750 limits assumed): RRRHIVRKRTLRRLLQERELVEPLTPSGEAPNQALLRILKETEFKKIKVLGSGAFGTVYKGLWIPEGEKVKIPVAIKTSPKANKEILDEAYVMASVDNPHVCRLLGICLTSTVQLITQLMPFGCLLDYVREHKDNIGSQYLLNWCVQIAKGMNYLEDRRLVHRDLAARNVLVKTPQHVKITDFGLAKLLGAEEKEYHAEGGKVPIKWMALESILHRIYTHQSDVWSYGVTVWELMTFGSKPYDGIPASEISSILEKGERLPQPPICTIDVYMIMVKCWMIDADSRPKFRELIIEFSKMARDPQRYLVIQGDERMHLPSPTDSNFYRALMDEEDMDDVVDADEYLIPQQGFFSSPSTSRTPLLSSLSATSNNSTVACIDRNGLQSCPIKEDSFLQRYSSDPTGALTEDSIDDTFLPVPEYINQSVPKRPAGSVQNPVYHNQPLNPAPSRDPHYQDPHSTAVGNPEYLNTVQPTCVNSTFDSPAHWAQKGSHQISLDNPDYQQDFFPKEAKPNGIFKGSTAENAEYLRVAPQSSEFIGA
T6 sequence (P00533 with tags, fused parts or gaps DEL746-750/T790M limits assumed): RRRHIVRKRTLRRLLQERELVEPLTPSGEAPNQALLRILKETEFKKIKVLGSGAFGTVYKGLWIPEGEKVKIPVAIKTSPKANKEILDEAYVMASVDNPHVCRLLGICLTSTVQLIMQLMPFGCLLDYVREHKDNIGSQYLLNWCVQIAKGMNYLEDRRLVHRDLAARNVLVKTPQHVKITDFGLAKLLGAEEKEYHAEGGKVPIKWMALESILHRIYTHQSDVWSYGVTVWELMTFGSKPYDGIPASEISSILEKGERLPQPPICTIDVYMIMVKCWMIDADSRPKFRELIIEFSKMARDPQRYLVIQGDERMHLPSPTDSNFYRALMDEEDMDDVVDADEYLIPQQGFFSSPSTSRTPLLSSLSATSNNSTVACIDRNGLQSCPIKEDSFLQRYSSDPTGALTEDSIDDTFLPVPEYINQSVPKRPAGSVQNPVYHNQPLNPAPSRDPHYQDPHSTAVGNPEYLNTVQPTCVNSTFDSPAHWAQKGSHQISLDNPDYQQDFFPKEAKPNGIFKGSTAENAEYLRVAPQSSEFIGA

Structure (SMILES) | IC50 [1] | IC50 [2] | IC50 [3] | GI50 [4, 13] | IC50 [5] | IC50 [6] | IC50 [7] | IC50 [8] | GI50 ([9]; Homo sapiens, PC-9, 72 h) | GI50 [10, 14] | GI50 [10, 15] | GI50 [10, 16] | GI50 [10, 17] | GI50 [10, 18] | GI50 [10, 19] | GI50 [10, 20] | IC50 [11] | IC50 [12] | GI50 ([4]; A-431 cells) | GI50 [9] | other results
CN1CCC12CCN(c1ccc3nc4n(c3c1)C13CCC(CN(CCOc5c(cnn5C)-c5cc(cn(C)c5=O)C(=O)N4)C1)C3)CC2 (single isomer, unassigned) [Example A67B] | 1.2 nM | 1.1 nM | 2.1 nM |  | 1.2 nM | 1.1 nM | 1.3 nM | 0.48 nM |  |  |  |  |  |  |  |  | 0.65 nM | 1.1 nM | 712 nM | 2.5 nM | GI50 [10, 21]: 0.64 nM; GI50 [10, 22]: 0.92 nM; GI50 ([10]; BaF3 cells, EGFR L858R, read-out: L858R/BaF3 GI50): 0.79 nM; GI50 [10, 23]: 1.9 nM; GI50 [10, 24]: 0.84 nM; GI50 ([10]; BaF3 cells, EGFR L858R-T790M, read-out: L858R-T790M/BaF3 GI50): 3.5 nM; GI50 [10, 25]: 1 nM
Cn1ncc2c1OCCN1CC3CCC(C3)(C1)n1c(nc3ccccc31)NC(=O)c1cc-2c(=O)n(C)c1 (single isomer, unassigned) [Example A61A, 15,21-Dimethyl-23-oxa-2,9,11,15,20,21,26-heptaazaheptacyclo[24.4.1.1^{1,28}.1^{13,17}.0^{2,10}.0^{3,8}.0^{18,22}]tritriaconta-3,5,7,9,13,17(33),18(22),19-octaene-12,16-dione] | > 5000 nM | > 5000 nM | > 5000 nM | 5900 nM | > 5000 nM | > 5000 nM | > 5000 nM | 1660 nM | 1910 nM | 521 nM | 688 nM | 1370 nM | 1740 nM | 1910 nM | 2660 nM | 913 nM | 2180 nM | > 5000 nM |  |  | 
CN(C)C1CN(c2ccc3nc4n(c3c2)C23CCC(CN(CCOc5c(cnn5C)-c5cc(cn(C)c5=O)C(=O)N4)C2)C3)CC1(F)F (single isomer, unassigned) [Example A99B] | 7.7 nM | 10 nM | 3530 nM |  | 59 nM | 11 nM | 8.4 nM | 4.6 nM |  |  |  |  |  |  |  |  | 3.5 nM | 94 nM | 3640 nM | 46 nM | GI50 [10, 21]: 1.2 nM; GI50 [10, 22]: 15 nM; GI50 [10, 23]: 11 nM; GI50 [10, 24]: 4.6 nM; GI50 [10, 25]: 7.9 nM

Now from value to compound, other results behind:

IC50 [1] | IC50 [2] | IC50 [3] | GI50 [4, 13] | IC50 [5] | IC50 [6] | IC50 [7] | IC50 [8] | GI50 ([9]; Homo sapiens, PC-9, 72 h) | GI50 [10, 14] | GI50 [10, 15] | GI50 [10, 16] | GI50 [10, 17] | GI50 [10, 18] | GI50 [10, 19] | GI50 [10, 20] | IC50 [11] | IC50 [12] | GI50 ([4]; A-431 cells) | GI50 [9] | Structure (SMILES) | other results
3.1 nM | 5.2 nM | 22 nM | 366 nM | 6 nM | 5.8 nM | 3.4 nM | 2.1 nM | 4.8 nM | 0.4 nM | 0.58 nM | 1.1 nM | 2.2 nM | 2.3 nM | 3.4 nM | 3.2 nM | 3.1 nM | 7.3 nM |  |  | C[C@@H]1CCCOc2c(cnn2C)-c2cc(cn(C)c2=O)C(=O)Nc2nc3ccc(N4CCC(N5CCN(C)CC5)C4)cc3n2C1 (stereo partly shown) [Example A33] | 
4.5 nM | 5.1 nM | 42 nM | 279 nM | 6.7 nM | 6.8 nM | 5.4 nM | 2.5 nM | 2.5 nM | 0.47 nM | 1.8 nM | 0.75 nM | 2.1 nM | 1.6 nM | 8.7 nM | 2.2 nM | 3 nM | 8.9 nM |  |  | C[C@@H]1CCCOc2c(cnn2C)-c2cc(cn(C)c2=O)C(=O)Nc2nc3ccc(N4CC5(CCN(C)C5)C4)cc3n2C1 [Example A42] | 
8.2 nM | 8.9 nM | 109 nM | 247 nM | 7.9 nM | 15 nM | 7.6 nM | 2.1 nM | 7.1 nM | 0.41 nM | 1 nM | 2.1 nM | 2.8 nM | 0.78 nM | 2.5 nM | 1.9 nM | 3.8 nM | 14 nM |  |  | C[C@@H]1CCCOc2c(cnn2C)-c2cc(cn(C)c2=O)C(=O)Nc2nc3ccc(N4CCC(N5CCN(C)CC5)CC4)cc3n2C1 [Example A29] | 
